Experimental data as given in patent EP2408450B1, “ALPHA-(N-SULFONAMIDO)ACETAMIDE COMPOUND AS AN INHIBITOR OF BETA AMYLOID PEPTIDE PRODUCTION” (Bristol-Myers Squibb Company, priority 2009, dated 2010).
Marks after values point to notes of the source that are not given here.

Columns and labels:
[1] = Metabolic stability in liver microsomes (human); assay type: in vitro ADME
Procedure: Mouse, rat, dog, human, and cynomolgus monkey liver microsomes were obtained from BD Gentest (Woburn, MA). The lot numbers were 13 (mouse), 8 (rat), 8 (dog), 19 and 26 (human), and 3 (cynomolgus monkey). […] The reaction, conducted in triplicate, was initiated by the addition of NADPH followed by incubation at 37°C for 50 minutes. Aliquots of samples (0.25 mL) were taken at 0, 5, 10, 20, 30, 40 and 50 minutes and the reaction was quenched by the addition of 3 volumes of acetonitrile. […] The reaction, conducted in triplicate, was initiated by the addition of NADPH followed by incubation at 37 °C for 50 minutes. Aliquots of samples (0.25 mL) were taken at 0, 5, 10, 20, 30, 40 and 50 minutes and the reaction was quenched by the addition of 3 volumes of acetonitrile. […] The reaction, conducted in duplicate, was initiated by the addition of NADPH followed by incubation at 37°C for 40 minutes. Aliquots of samples (0.25 mL) were taken at 0, 5, 10, 15, 20, 30 and 40 minutes and the reaction was quenched by the addition of 3 volumes of acetonitrile. For all studies, samples were analyzed immediately by an LC/MS method.

[2] = system: Aβ40; test: Inhibition of Aβ40 formation in cultured H4 APP751 SWE cells; assay type: cell-based; settings: H4-8Sw cells, mean ± SD, n = 50
Procedure: Cells were maintained in log phase through twice weekly passage at a 1:20 dilution. […] Following incubation for 19 hours in 5% CO2 at 37°C, plates were briefly centrifuged (1000 rpm, 5 min). […] Antibody cocktails were freshly prepared by dilution into 40 mM Tris-HCl (pH 7.4) with 0.2% BSA and added to assay plates. […] Assay plates containing antibodies were sealed with aluminum foil and incubated overnight at 4°C. Signal was determined using a Viewlux counter (Perkin Elmer) and IC50 values determined using curve fitting in CurveMaster (Excel Fit based).

[3] = system: CSF Aβ40; test: Rat CSF Aβ40 assay (4G8-TSD ELISA); assay type: in vivo; settings: acute rat studies; read-out: ED50 for reduction of CSF Aβ40
Excerpt: As a result of these sequence differences, antibodies that recognize the N-terminal region of human Aβ, such as 26D6, bind weakly to rodent Aβ. […] Table 1: Summary of Antibody Pairs Used to Assay In vivo Samples Each of these assays was validated using several methods. […] The optimized and validated Aβ assays still contained a small amount of the signal (5-20% of vehicle control) which could not be depleted by anti-Aβ antibodies or treatment with γ-secretase inhibitors. […] Female Harlan Sprague-Dawley rats (∼200 - 250 g) were dosed daily by oral gavage with a dosing vehicle of 99% PEG-400, 1% Tween-80 at 4 mL/kg in the morning. […] All procedures were done in concordance with ACUC guidelines. […] Plasma was obtained after centrifugation. […] CSF samples were centrifuged to remove cells or debris prior to dilution at 1:2 in 4% BSA and frozen for subsequent analysis. […] Plates were coated with TSD antibody and washed as for the brain Aβ40 assay. CSF samples were diluted 1:10 in PBS, pH 7.8, 0.1 % Tween-20. At time of collection, CSF was previously diluted 1:2 in 4% BSA in water. […] Samples were detected using 4G8-biotin (Signet) diluted 1:8000 in PBS, 0.05% Tween, 0.1% BSA for 1 hour.

[4] = system: proximal duodenum; test: Histopathology of the proximal duodenum (GI toxicity) in rats; assay type: in vivo, rat; settings: for Day 4 GI Tox: 4 days; for Day 7 GI Tox: 7 days; for GI Tox: 4-day
Procedure: Female Harlan Sprague-Dawley rats (∼200 - 250 g) were dosed daily by oral gavage with a dosing vehicle of 99% PEG-400, 1% Tween-80 at 4 mL/kg in the morning. […] All procedures were done in concordance with ACUC guidelines. […] Plasma was obtained after centrifugation. […] CSF samples were centrifuged to remove cells or debris prior to dilution at 1:2 in 4% BSA and frozen for subsequent analysis.
Following euthanasia by CO2 asphyxiation, approximately 3 cm long sections of the proximal duodenum were removed from the abdomen, rinsed with ice cold Phosphate buffered saline and placed into 10% buffered formalin prior to sectioning. Tissue sections of the duodenum were embedded in liquid paraffin, mounted onto blocks, and cut into triplicate sagittal (cross-luminal) ring sections and stained using the Periodic acid Schiff's base method prior to microscopic evaluation. All animals survived until scheduled necropsy was performed.

[5] = system: CYP3A4 mRNA; settings: human, 3 days, 20 µM
Procedure: [[2-fluoro-4-(1,2,4-oxadiazol-3-yl)phenyl]methyl]amino]-5,5,5-trifluoropentanamide to induce CYP3A4 mRNA was evaluated in vitro using the Fa2N-4 cell line. The Fa2N-4 cell is an immortalized human hepatocyte line that was created using the Simian virus 40 (SV40) T antigen as the immortalizing gene, while retaining basal expression and inducibility of several CYP isoforms, including CYP3A4. Fa2N-4 cells and MFE Support Media F were provided by XenoTech, LLC (Lenexa, Kansas).
Upon the receipt of the cells, the media were changed and the cells maintained overnight in a humidified, CO2-supplied incubator. After this adaptation period, the cells were examined under a light microscope and a determination was made as to whether the cells were morphologically normal and suitable for use. During the treatment period, the cells were visually inspected on a daily basis; cellular morphology, confluency, and signs of toxicity due to the test article were documented as necessary. […] Rifampicin (10 µM), a prototypical CYP3A4 inducer, was used as the positive control. Fa2N-4 cells were exposed to the test articles for a total of 3 days. The culture medium was replaced daily with fresh medium containing the test articles. After a total of ~72 hours of exposure, medium was aspirated and the cells washed once with warm phosphate buffered saline solution before adding the cell lysis buffer (Qiagen, Valencia, CA).

[6] = system: plasma Aβ40; test: Rat plasma Aβ40 assay (4G8-TSD ELISA); settings: for plasma Aβ40, % of baseline Aβ40 values: 2 to 24 hours post dosing

NC(=O)[C@@H](CCC(F)(F)F)N(Cc1ccc(-c2ncon2)cc1F)S(=O)(=O)c1ccc(Cl)cc1 [(2R)-2-[[(4-chlorophenyl)sulfonyl][[2-fluoro-4-(1,2,4-oxadiazol-3-yl)phenyl]methyl]amino]-5,5,5-trifluoropentanamide]
rate of in vitro metabolism ([1]; human microsomes, NADPH-fortified, 1 µM): 32 pmol/min/mg protein | predicted in vivo (serum) clearance ([1]; human, scaled from liver microsome rate): ~8 mL/min/kg | IC50 [2]: 0.3 ± 0.15 nM | ED50 [3]: 1 to 10 mg/kg | rats with mild lesions in duodenal tissue (histological evaluation) ([4]; 100 mg/kg/day, 4-day rat study): 1/3 | Day 4 GI Tox ([4]; Rat Study No. 3, 30 mg/kg/day): NAD | Day 7 GI Tox ([4]; Rat Study No. 3, 30 mg/kg/day): NAD | Day 4 GI Tox ([4]; Rat Study No. 3, 300 mg/kg/day): +^b | Day 7 GI Tox ([4]; Rat Study No. 3, 300 mg/kg/day): NAD | dose needed to induce GI toxicity ([4]; female, Harlan Sprague-Dawley, rat, in vivo): 100 mg/kg/day | GI Tox ([4]; rat, Study No. 2, 3 mg/kg/day): NAD | GI Tox ([4]; rat, Study No. 2, 10 mg/kg/day): NAD | GI Tox ([4]; rat, Study No. 2, 30 mg/kg/day): NAD | GI Tox ([4]; rat, Study No. 2, 100 mg/kg/day): +^e | GI Tox ([4]; rat, Study No.1, 3 mg/kg/day): NAD | GI Tox ([4]; rat, Study No.1, 10 mg/kg/day): NAD | GI Tox ([4]; rat, Study No.1, 30 mg/kg/day): NAD | drug-related duodenal changes ([4]; rats given ≤ 30 mg/kg): No drug-related duodenal changes | microscopic evaluation of the proximal duodenum ([4]; rats, 100 mg/kg/day once daily for 4 days, 1 of 3 animals): slight goblet cell metaplasia | magnitude of induction as % of the induction response caused by rifampicin [5]: 22% | ED50 ([6]; Rattus norvegicus, read-out: ED50 for reduction of plasma Aβ40): 1 to 10 mg/kg | plasma Aβ40, % of starting values ([6]; rat, single dose 1 mg/kg, by 8 hours): 250% | plasma Aβ40 ([6]; rat, single dose 1 mg/kg, by 24 hours): returning to baseline values | plasma Aβ40, % of baseline Aβ40 values ([6]; rat, single dose 10 mg/kg): less than 25% | plasma Aβ40, % of vehicle control ([6]; rat, single dose 30 mg/kg): 2% | plasma Aβ40, % of baseline Aβ40 values ([6]; rat, single dose 100 mg/kg): less than 25%
